The record followed here is paper PMC12044245 (Emerging Infectious Diseases, 2025).

Common to all, as to type: biochemical
Experiment [1] has as its target NA (neuraminidase) of A/Yamagata/122/2023 (Influenza A virus, UniProt C3W5S3).
For experiment [2], the target named is NA (neuraminidase) of A/Yamagata/127/2023 (Influenza A virus, UniProt C3W5S3).
Experiment [3] concerns the target NA (neuraminidase) of A/Yamagata/135/2023 (Influenza A virus, UniProt C3W5S3).
The target in experiment [4] is NA (neuraminidase) of A/Yamagata/177/2023 (Influenza A virus, UniProt C3W5S3).
The target in experiment [5] is NA (neuraminidase) of A/Yamagata/292/2023 (Influenza A virus, UniProt C3W5S3).
Experiment [6] concerns the target NA (neuraminidase) of A/Yamagata/312/2023 (Influenza A virus, UniProt C3W5S3).
For experiment [7], the target named is NA (neuraminidase) of A/Yamagata/336/2023 (Influenza A virus, UniProt C3W5S3).
The target of experiment [8] is NA (neuraminidase) of A/Yamagata/104/2024 (Influenza A virus, UniProt C3W5S3).

Turning to `CCC(CC)[C@H](NC(C)=O)[C@@H]1[C@H](O)[C@@H](C(=O)O)C[C@H]1N=C(N)N` [Peramivir, peramivir], the half-inhibitory concentration (IC50) (usually the concentration needed to halve the response being measured) in experiment [1] stood at 0.08 nM; in experiment [2], 0.08 nM; in experiment [3] it was 0.08 nM; in experiment [4], 0.06 nM; in experiment [5], 0.09 nM; in experiment [6], 0.11 nM. Also, the IC50 in experiment [7] and in experiment [8] was 0.09 nM throughout.
